Experimental data published in article PMC10233710 (ChemMedChem, 2023).
Read-outs that look alike come from different tables or passages of the source.

What was measured:
recombinant human TDP1 = recombinant human TDP1 (Homo sapiens, UniProt Q9NUW8); assay: TDP1 gel-based inhibition assay; type: biochemical
HCT-116 cells = assay: MTT cytotoxicity assay, HCT-116; type: cell-based, human; settings: read-out: GI50 ± SD (μM) HCT-116
MCF-7 cells = assay: MTT cytotoxicity assay, MCF-7; type: cell-based, human; settings: read-out: GI50 ± SD (μM) MCF-7
recombinant TOP1 = target: T1, recombinant TOP1 (Homo sapiens, UniProt P11387); assay: TOP1-mediated DNA cleavage assay; type: biochemical; settings: TOP1 cleavage inhibitory activity, semiquantitative relative to CPT at 1 μM
T1 sequence (P11387 1-765): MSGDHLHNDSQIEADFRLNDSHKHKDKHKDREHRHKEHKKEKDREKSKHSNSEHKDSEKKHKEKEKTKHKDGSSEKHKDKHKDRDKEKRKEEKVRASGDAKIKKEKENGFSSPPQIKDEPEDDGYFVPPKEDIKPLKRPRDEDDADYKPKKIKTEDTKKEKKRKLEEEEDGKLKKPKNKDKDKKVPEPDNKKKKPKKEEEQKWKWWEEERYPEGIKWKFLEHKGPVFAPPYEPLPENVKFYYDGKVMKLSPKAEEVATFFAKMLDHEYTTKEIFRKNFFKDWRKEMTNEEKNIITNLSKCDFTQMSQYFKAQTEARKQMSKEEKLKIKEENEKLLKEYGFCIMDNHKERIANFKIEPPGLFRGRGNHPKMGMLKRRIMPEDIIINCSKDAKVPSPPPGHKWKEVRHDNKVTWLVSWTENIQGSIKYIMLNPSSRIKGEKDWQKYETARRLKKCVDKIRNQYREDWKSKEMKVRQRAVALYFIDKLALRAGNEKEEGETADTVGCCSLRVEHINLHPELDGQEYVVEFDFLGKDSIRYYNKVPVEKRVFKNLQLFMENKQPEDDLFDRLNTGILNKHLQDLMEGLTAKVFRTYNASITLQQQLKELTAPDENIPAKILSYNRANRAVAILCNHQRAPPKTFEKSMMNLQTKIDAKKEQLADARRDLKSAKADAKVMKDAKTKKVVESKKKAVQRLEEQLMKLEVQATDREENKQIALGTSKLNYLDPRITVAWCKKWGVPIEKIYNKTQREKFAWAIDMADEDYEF

recombinant human TDP1, sequence (Q9NUW8 whole entry): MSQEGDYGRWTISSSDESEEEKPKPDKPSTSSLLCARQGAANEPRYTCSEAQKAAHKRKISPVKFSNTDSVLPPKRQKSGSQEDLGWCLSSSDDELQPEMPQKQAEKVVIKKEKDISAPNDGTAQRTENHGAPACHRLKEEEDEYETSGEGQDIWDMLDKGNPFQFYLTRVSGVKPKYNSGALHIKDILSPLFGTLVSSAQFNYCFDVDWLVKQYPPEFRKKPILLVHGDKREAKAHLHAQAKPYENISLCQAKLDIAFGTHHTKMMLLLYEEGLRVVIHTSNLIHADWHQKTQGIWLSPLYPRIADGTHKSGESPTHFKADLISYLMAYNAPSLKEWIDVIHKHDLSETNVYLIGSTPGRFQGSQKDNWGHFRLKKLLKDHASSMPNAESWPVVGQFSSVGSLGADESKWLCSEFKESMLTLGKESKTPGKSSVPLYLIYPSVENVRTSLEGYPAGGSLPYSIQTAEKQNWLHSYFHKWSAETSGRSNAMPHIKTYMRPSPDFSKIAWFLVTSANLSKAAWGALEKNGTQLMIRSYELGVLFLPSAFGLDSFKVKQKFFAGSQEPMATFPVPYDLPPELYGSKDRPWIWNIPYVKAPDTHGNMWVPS

| SMILES | IC50 (recombinant human TDP1; read-out: IC50 (μM) for TDP1, gel-based assay, Table 1) | GI50 (HCT-116 cells; MTT assay, 72 h, Table 1) | GI50 (MCF-7 cells; MTT assay, 72 h, Table 1) | TOP1 Inhibition (recombinant TOP1; Table 1) | IC50 (recombinant human TDP1) | GI50 (HCT-116 cells; Homo sapiens, HCT-116, 72 h) | GI50 (MCF-7 cells; Homo sapiens, MCF7, 72 h) | TOP1 Inhibition (recombinant TOP1; Table 2) | IC50 (recombinant human TDP1; read-out: IC50 (μM) for TDP1, gel-based assay, Table 2) |
| --- | --- | --- | --- | --- | --- | --- | --- | --- | --- |
| COc1cc2c(=O)n(C)c3c4cc5c(cc4ccc3c2cc1OC)OCO5 [Compound 4, oxynitidine, reference compound] | > 111 µM | 75 ± 4.4 µM | > 100 µM | – | – | – | – | – | – |
| COc1cc2c(=O)n(C)c3c4cc5c(cc4c(OC(C)=O)cc3c2cc1OC)OCO5 [Compound 10, 2,3-Dimethoxy-12-methyl-13-oxo-12,13-dihydro-[1,3]dioxolo[4’,5’:4,5]benzo[1,2-c]phenanthridin-6-yl acetate] | – | – | – | + (+, between 20% and 50% activity) | > 111 µM | > 100 µM | > 100 µM | – | – |
| COc1cc2c(=O)n(C)c3c4cc5c(cc4c(O)cc3c2cc1OC)OCO5 [Compound 11, 6-Hydroxy-2,3-dimethoxy-12-methyl-[1,3]dioxolo[4’,5’:4,5]benzo[1,2-c]phenanthridin-13(12H)-one] | – | – | – | 0 | > 111 µM | > 100 µM | > 100 µM | – | – |
| CNCCOc1cc2c3cc(OC)c(OC)cc3c(=O)n(C)c2c2cc3c(cc12)OCO3 [Compound 12, 2,3-Dimethoxy-12-methyl-6-(2-(methylamino)ethoxy)-[1,3]dioxolo[4’,5’:4,5]benzo[1,2-c]phenanthridin-13(12H)-one] | – | – | – | +++ (+++, between 75% and 95% activity) | > 111 µM | 1.3 ± 0.12 µM | 2.2 ± 0.06 µM | – | – |
| CNCCCOc1cc2c3cc(OC)c(OC)cc3c(=O)n(C)c2c2cc3c(cc12)OCO3 [Compound 13, 2,3-Dimethoxy-12-methyl-6-(3-(methylamino)propoxy)-[1,3]dioxolo[4’,5’:4,5]benzo[1,2-c]phenanthridin-13(12H)-one] | – | – | – | + (+, between 20% and 50% activity) | > 111 µM | 12 ± 1.2 µM | 33 ± 5 µM | – | – |
| COc1cc2c(=O)n(C)c3c4cc5c(cc4c(OCCN(C)C)cc3c2cc1OC)OCO5 [Compound 14, 6-(2-(Dimethylamino)ethoxy)-2,3-dimethoxy-12-methyl-[1,3]dioxolo[4’,5’:4,5]benzo[1,2-c]phenanthridin-13(12H)-one] | – | – | – | + (+, between 20% and 50% activity) | 37 to 111 µM | 4.6 ± 0.41 µM | 8.5 ± 0.91 µM | – | – |
| COc1cc2c(=O)n(C)c3c4cc5c(cc4c(OCCCN(C)C)cc3c2cc1OC)OCO5 [Compound 15, 6-(3-(Dimethylamino)propoxy)-2,3-dimethoxy-12-methyl-[1,3]dioxolo[4’,5’:4,5]benzo[1,2-c]phenanthridin-13(12H)-one] | – | – | – | + (+, between 20% and 50% activity) | > 111 µM | 36 ± 1.3 µM | 54 ± 4.9 µM | – | – |
| COc1cc2c(=O)n(C)c3c4cc5c(cc4c(OCCN4CCCCC4)cc3c2cc1OC)OCO5 [Compound 16, 2,3-Dimethoxy-12-methyl-6-(2-(piperidin-1-yl)ethoxy)-[1,3]dioxolo[4’,5’:4,5]benzo[1,2-c]phenanthridin-13(12H)-one] | – | – | – | + (+, between 20% and 50% activity) | > 111 µM | > 100 µM | 22 ± 7.7 µM | – | – |
| COc1cc2c(=O)n(C)c3c4cc5c(cc4c(OCCCN4CCCCC4)cc3c2cc1OC)OCO5 [Compound 17, 2,3-Dimethoxy-12-methyl-6-(3-(piperidin-1-yl)propoxy)-[1,3]dioxolo[4’,5’:4,5]benzo[1,2-c]phenanthridin-13(12H)-one] | – | – | – | ++ (++, between 50% and 75% activity) | > 111 µM | 1.8 ± 0.32 µM | 6.6 ± 1.3 µM | – | – |
| COc1cc2c(=O)n(C)c3c4cc5c(cc4c(OCCN4CCN(C)CC4)cc3c2cc1OC)OCO5 [Compound 18, 2,3-Dimethoxy-12-methyl-6-(2-(4-methylpiperazin-1-yl)ethoxy)-[1,3]dioxolo[4’,5’:4,5]benzo[1,2-c]phenanthridin-13(12H)-one] | – | – | – | + (+, between 20% and 50% activity) | 37 to 111 µM | 7.7 ± 0.56 µM | 7 ± 1.3 µM | – | – |
| COc1cc2c(=O)n(C)c3c4cc5c(cc4c(OCCCN4CCN(C)CC4)cc3c2cc1OC)OCO5 [Compound 19, 2,3-Dimethoxy-12-methyl-6-(3-(4-methylpiperazin-1-yl)propoxy)-[1,3]dioxolo[4’,5’:4,5]benzo[1,2-c]phenanthridin-13(12H)-one] | – | – | – | ++ (++, between 50% and 75% activity) | > 111 µM | 1.5 ± 0.21 µM | 0.93 ± 0.07 µM | – | – |
| COc1cc2c(=O)n(C)c3c4cc5c(cc4c(OCCn4ccnc4)cc3c2cc1OC)OCO5 [Compound 20, 6-(2-(1H-Imidazol-1-yl)ethoxy)-2,3-dimethoxy-12-methyl-[1,3]dioxolo[4’,5’:4,5]benzo[1,2-c]phenanthridin-13(12H)-one] | – | – | – | ++ (++, between 50% and 75% activity) | > 111 µM | 2.9 ± 0.45 µM | 2.7 ± 0.23 µM | – | – |
| COc1cc2c(=O)n(C)c3c4cc5c(cc4c(OCCCn4ccnc4)cc3c2cc1OC)OCO5 [Compound 21, 6-(3-(1H-Imidazol-1-yl)propoxy)-2,3-dimethoxy-12-methyl-[1,3]dioxolo[4’,5’:4,5]benzo[1,2-c]phenanthridin-13(12H)-one] | – | – | – | 0 | > 111 µM | 16 ± 3.6 µM | 64 ± 3.9 µM | – | – |
| COc1cc2c(=O)n(C)c3c4cc5c(cc4c(OCCNCCN(C)C)cc3c2cc1OC)OCO5 [Compound 22, 6-(2-((2-(Dimethylamino)ethyl)amino)ethoxy)-2,3-dimethoxy-12-methyl-[1,3]dioxolo[4’,5’:4,5]benzo[1,2-c]phenanthridin-13(12H)-one] | – | – | – | + (+, between 20% and 50% activity) | > 111 µM | 9.1 ± 1 µM | 9.1 ± 2.4 µM | – | – |
| CCOC(=O)COc1cc2c3cc(OC)c(OC)cc3c(=O)n(C)c2c2cc3c(cc12)OCO3 [Compound 23, Ethyl 2-((2,3-dimethoxy-12-methyl-13-oxo-12,13-dihydro-[1,3]dioxolo[4’,5’:4,5]benzo[1,2-c]phenanthridin-6-yl)oxy)acetate] | – | – | – | 0 | > 111 µM | > 100 µM | 91 ± 5.9 µM | – | – |
| COc1cc2c(=O)n(C)c3c4cc5c(cc4cc(O)c3c2cc1OC)OCO5 [Compound 33, 5-Hydroxy-2,3-dimethoxy-12-methyl-[1,3]dioxolo[4’,5’:4,5]benzo[1,2-c]phenanthridin-13(12H)-one] | – | – | – | – | > 111 µM | > 100 µM | > 100 µM | + (+, between 20% and 50% activity) | – |
| COc1cc2c(=O)n(C)c3c4cc5c(cc4cc(OCCN(C)C)c3c2cc1OC)OCO5 [Compound 34, 5-(2-(Dimethylamino)ethoxy)-2,3-dimethoxy-12-methyl-[1,3]dioxolo[4’,5’:4,5]benzo[1,2-c]phenanthridin-13(12H)-one] | – | – | – | – | 37 to 111 µM | 11 ± 0.48 µM | 27 ± 1.5 µM | + (+, between 20% and 50% activity) | – |
| CCN(CC)CCOc1cc2cc3c(cc2c2c1c1cc(OC)c(OC)cc1c(=O)n2C)OCO3 [Compound 36, 5-(2-(Diethylamino)ethoxy)-2,3-dimethoxy-12-methyl-[1,3]dioxolo[4’,5’:4,5]benzo[1,2-c]phenanthridin-13(12H)-one] | – | – | – | – | – | 2.1 ± 0.23 µM | 1.6 ± 0.17 µM | 0 | > 111 µM |
